Laboratory results from patent US20050192279A1, “Pyridazinones as antagonists of alpha4 integrins” (priority 2004, published 2005).
Read-outs that look alike come from different tables or passages of the source.

Key:
[1] = test system: alpha 4 beta 7-positive cells; test: Intraperitoneal Delayed Type Hypersensitivity (IP-DTH) Response; assay type: in vivo, mice; details: peritoneal cells 48 h after antigen challenge; for inhibition in vivo at 30 mg/kg: Mus musculus, 48 h, read-out: % Decrease in recruited α4β7 + cells
Source text: Intraperitoneal Delayed Type Hypersensitivity (IP-DTH) Response. A Method for Analyzing Effects of Integrin Antagonists In Vivo
Integrin antagonists are meant to interfere with the binding or adhesion of immune cells, such as lymphocytes, monocytes and eosinophils that bear integrin receptors to counter-receptors that exist on endothelial cells in the vasculature. Among those integrin-bearing cells, cells that are positive for alpha 4 beta 7 integrin (found in the mesenteric system and in the gut), would comprise many of the cells recruited to a peritoneal antigen challenge. One can maximize the number of alpha 4 beta 7 integrin-positive cells recruited by inducing an intraperitoneal delayed type hypersensitivity response to antigen that will recruite antigen-responsive cells from the mesenteric lymph nodes. An inhibitor of alpha 4 beta 7 integrin should prevent the recruitment of these cells to the site of antigen challenge. Alpha 4 beta 7 integrin-positive cells are considered to be gut-homing, and are found in greater abundance in inflamed tissues of the GI tract and pancrea.
The antigenic challenge will induce a delayed type hypersensitivity response. In this model, animals were primed with antigen, then 7 days later were challenged intraperitoneally with the same antigen. During the ensuing 24-48 h, cells that were primed to recognize this antigen should be recruited to the challenge site. If the site is the peritoneal cavity, the recruited cells can be obtained by […] the cavity with a physiological buffer and collecting the lavage fluid.
The contribution of alpha 4 beta 7 integrin positive cells to the peritonal cavity cell population was ascertained by using flow cytometry to evaluate their relative percent in this population.
The mice were primed via intraperitoneal administration with 25 micrograms ovalbumin in a physiological buffer that may or may not contain alum as an adjuvant.
After 7 days, the mice were challenged with 25 micrograms ovalbumin via intraperitoneal administration.
Compounds were administered either orally (po), or subcutaneously (sc), either once daily or twice daily, for 2 days, starting on the day of antigen challenge.
Forty eight hours after antigen challenge, the elicited cells in the peritoneal cavity were harvested by lavaging the cavity in physiological saline or phosphate buffered saline, with calcium and magnesium salts.
The cells were washed into Staining Buffer consisting of phosphate buffered saline, 1% bovine serum albumin and 0.1% sodium azide, and resuspended to 2×10e7 cells/ml. A portion of 1×10e6 cells was deposited into a 96-well V-bottom plate for staining.
The sample of 1×10e6 cells was stained with fluorochrome-coupled antibody to alpha 4 beta 7 integrin or a primary antibody to alpha 4 beta 7 integrin followed by a secondary fluorochrome-coupled antibody. Each staining step was carried out at 4° C. for 30 to 45 min with gentle shaking, followed by 4 washes with Staining Buffer at 4° C. The cells were resuspended in 200 microliters of 1% paraformaldehyde in phosphate buffered saline. The cells were then transferred to test tubes and maintained at 4° C. until analyzed by flow cytometry to determine numbers of alpha4 beta7-postive cells.
A Becton-Dickenson FACSort (B-D instruments) was used for these studies.
Comparisons were made between numbers of alpha 4 beta 7-positive cells in samples taken from antigen-treated animals and numbers of alpha 4 beta 7-positive cells taken from antigen-treated animals administered experimental compounds.

[2] = target: T1, α4β1 (Homo sapiens, UniProt P05556+P13612); test: Ramos Cell Adhesion Assay (α4β1 Mediated Adhesion/VCAM-1); assay type: cell-based; details: Ramos cell adhesion to hVCAM-1; read-out: α4β1 IC50
T1 construct: Ramos Cell Adhesion Assay (α4β1 Mediated Adhesion/VCAM-1); endogenous in cells; host or cells: Ramos cells
In short: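 Plates coated overnight at 4° C with recombinant hVCAM-1 at 4.0 μg/mL, pH 9.0, then blocked in PBS/1% BSA. Calcein AM-labeled Ramos cells added with compounds and left to adhere 1 h at room temperature; after washing, cells lysed in 1 M Tris pH 8.0/1% SDS.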

T1 sequence (P13612 34-1032): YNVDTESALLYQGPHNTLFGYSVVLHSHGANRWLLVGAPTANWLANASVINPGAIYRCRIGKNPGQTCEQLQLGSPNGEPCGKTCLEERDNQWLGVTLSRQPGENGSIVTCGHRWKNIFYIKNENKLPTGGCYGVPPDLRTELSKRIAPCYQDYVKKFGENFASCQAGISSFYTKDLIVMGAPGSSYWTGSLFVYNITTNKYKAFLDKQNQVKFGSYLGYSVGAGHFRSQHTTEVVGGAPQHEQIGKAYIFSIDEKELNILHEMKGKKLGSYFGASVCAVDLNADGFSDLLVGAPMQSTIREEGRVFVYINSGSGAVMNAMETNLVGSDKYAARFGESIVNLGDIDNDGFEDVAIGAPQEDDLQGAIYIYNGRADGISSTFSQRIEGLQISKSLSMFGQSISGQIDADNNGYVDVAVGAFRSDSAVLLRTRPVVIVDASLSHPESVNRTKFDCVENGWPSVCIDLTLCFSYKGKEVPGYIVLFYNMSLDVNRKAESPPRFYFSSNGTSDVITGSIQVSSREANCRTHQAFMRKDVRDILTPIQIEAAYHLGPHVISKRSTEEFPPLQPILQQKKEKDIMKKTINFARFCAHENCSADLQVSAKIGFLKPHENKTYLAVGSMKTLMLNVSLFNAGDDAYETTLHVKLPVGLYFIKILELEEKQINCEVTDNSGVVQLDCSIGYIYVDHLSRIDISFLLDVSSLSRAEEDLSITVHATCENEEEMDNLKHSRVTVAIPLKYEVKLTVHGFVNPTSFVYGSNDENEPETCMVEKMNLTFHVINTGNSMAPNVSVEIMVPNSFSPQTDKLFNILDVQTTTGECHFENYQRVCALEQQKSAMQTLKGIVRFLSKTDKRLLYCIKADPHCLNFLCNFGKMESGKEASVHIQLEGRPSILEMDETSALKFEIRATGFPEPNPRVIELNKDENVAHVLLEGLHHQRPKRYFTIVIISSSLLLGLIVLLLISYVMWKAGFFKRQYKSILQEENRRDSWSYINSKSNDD
T1 sequence (P05556 21-798): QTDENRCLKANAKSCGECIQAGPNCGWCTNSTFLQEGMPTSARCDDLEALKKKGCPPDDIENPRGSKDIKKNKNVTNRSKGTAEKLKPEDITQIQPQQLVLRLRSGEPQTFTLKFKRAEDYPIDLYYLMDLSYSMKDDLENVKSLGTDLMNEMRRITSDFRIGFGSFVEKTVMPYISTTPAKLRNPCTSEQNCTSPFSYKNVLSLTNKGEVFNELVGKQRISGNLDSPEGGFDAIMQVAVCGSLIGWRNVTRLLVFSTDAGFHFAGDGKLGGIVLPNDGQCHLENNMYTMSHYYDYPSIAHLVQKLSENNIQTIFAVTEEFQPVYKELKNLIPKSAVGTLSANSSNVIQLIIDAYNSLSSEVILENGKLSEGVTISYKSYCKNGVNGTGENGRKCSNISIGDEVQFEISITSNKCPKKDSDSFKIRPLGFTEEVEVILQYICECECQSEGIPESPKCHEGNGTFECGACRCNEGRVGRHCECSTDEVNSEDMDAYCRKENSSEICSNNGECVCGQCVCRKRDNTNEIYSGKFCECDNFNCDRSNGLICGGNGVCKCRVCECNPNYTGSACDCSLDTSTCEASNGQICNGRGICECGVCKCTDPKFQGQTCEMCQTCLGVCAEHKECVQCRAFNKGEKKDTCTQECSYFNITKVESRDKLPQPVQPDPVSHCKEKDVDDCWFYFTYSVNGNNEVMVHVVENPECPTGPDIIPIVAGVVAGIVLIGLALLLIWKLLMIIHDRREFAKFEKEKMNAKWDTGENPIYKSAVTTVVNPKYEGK

Q: What does the source list for `COc1cnn(CC(N)=O)c(=O)c1-c1ccc(C[C@H](NC(=O)c2c(Cl)cccc2Cl)C(=O)O)cc1` [Cpd 5]?
A: inhibition in vivo at 30 mg/kg ([1]; sc, 30 mg/kg sc bid × 2): 53.4%; IC50 [2]: 307 nM

Q: With `COc1cnn(CCN2CCOCC2)c(=O)c1-c1ccc(C[C@H](NC(=O)c2c(Cl)cccc2Cl)C(=O)O)cc1` [Cpd 10] as the compound, how does the inhibition in vivo at 30 mg/kg ([1]; sc, 30 mg/kg sc bid × 2) read?
A: Its inhibition in vivo at 30 mg/kg is 56.3%.

Q: What about the IC50 [2] of the same compound?
A: Its IC50 is 363 nM.

Q: What does the source list for `COc1cnn(CC(=O)O)c(=O)c1-c1ccc(C[C@H](NC(=O)c2c(Cl)cccc2Cl)C(=O)O)cc1` [Cpd 11]?
A: inhibition in vivo at 30 mg/kg ([1]; sc, 30 mg/kg sc bid × 2): 70.5%; IC50 [2]: 842 nM

Q: For `COc1cnn(CCO)c(=O)c1-c1ccc(C[C@H](NC(=O)c2c(Cl)cccc2Cl)C(=O)O)cc1` [Cpd 15, (S)-2-(2,6-Dichloro-benzoylamino)-3{4-[2-(2-hydroxy-ethyl)-5-methoxy-3-oxo-2,3-dihydro-pyridazin-4-yl]-phenyl}-propionic acid], which inhibition in vivo at 30 mg/kg ([1]; sc, 30 mg/kg sc bid × 2) is on record?
A: The inhibition in vivo at 30 mg/kg was 10.4%.

Q: What about the IC50 [2] of the same compound?
A: The IC50 was 125 nM.

Q: What does the source list for `CNc1cnn(CC(C)=O)c(=O)c1-c1ccc(C[C@H](NC(=O)c2c(Cl)cccc2Cl)C(=O)O)cc1` [Cpd 18]?
A: % Decrease in recruited α4β7 + cells ([1]; 30 mg/kg sc bid × 2): 52.8%; IC50 [2]: > 1000 nM

Q: With `O=C(N[C@@H](Cc1ccc(-c2c(OCc3cccnc3)cnn(CCO)c2=O)cc1)C(=O)O)c1c(Cl)cccc1Cl` [Cpd 30] as the compound, how does the inhibition in vivo at 30 mg/kg ([1]; sc, 30 mg/kg sc bid × 2) read?
A: Its inhibition in vivo at 30 mg/kg is 37.4%.

Q: And the IC50 [2]?
A: The IC50 was 284 nM.

Q: Which results are given for `O=C(N[C@@H](Cc1ccc(-c2c(OCC3CC3)cnn(CCO)c2=O)cc1)C(=O)O)c1c(Cl)cccc1Cl` [Cpd 35]?
A: inhibition in vivo at 30 mg/kg ([1]; sc, 30 mg/kg sc bid × 2): 49.8%; IC50 [2]: 342 nM

Q: Which inhibition in vivo at 30 mg/kg ([1]; sc, 30 mg/kg sc bid × 2) does the source give for `Cn1ncc(N)c(-c2ccc(C[C@H](NC(=O)c3c(Cl)cccc3Cl)C(=O)O)cc2)c1=O` [Cpd 46] here?
A: Its inhibition in vivo at 30 mg/kg is 56.6%.

Q: And the IC50 [2]?
A: The IC50 was 370 nM.

Q: What does the source list for `O=C(N[C@@H](Cc1ccc(-c2c(N3CCOCC3)cnn(CCO)c2=O)cc1)C(=O)O)c1c(Cl)cccc1Cl` [Cpd 61]?
A: inhibition in vivo at 30 mg/kg ([1]; sc, 30 mg/kg sc bid × 2): 37.4%; IC50 [2]: 221 nM

Q: Which IC50 [2] does the source give for `COc1cnn(C)c(=O)c1-c1ccc(C[C@H](NC(=O)[C@@H]2C3CCC(CC3)N2C(=O)CCc2ccccc2)C(=O)O)cc1` [Cpd 89, 3-[4-(5-Methoxy-2-methyl-3-oxo-2,3-dihydro-pyridazin-4-yl)-phenyl]-2(S)-{[2-(3-phenyl-propionyl)-2-aza-bicyclo[2.2.2]octane-3(S)-carbonyl]-amino}-propionic acid] here?
A: Its IC50 is 39.7 nM.

Q: With `COc1cnn(CCO)c(=O)c1-c1ccc(C[C@H](NC(=O)OC(C)(C)C)C(=O)O)cc1` [Cpd 120] as the compound, how does the inhibition in vivo at 30 mg/kg ([1]; po, 30 mg/kg po bid × 2) read?
A: The inhibition in vivo at 30 mg/kg was 25.4%.

Q: How did the IC50 [2] turn out when `COC(=O)[C@H](Cc1ccc(-c2c(OC)cnn(C)c2=O)cc1)NC(=O)c1c(Cl)cccc1Cl` [Cpd 151] was run?
A: Its IC50 is over 5000 nM.

Q: `COc1cnn(CCO)c(=O)c1-c1ccc(C[C@H](NC(=O)c2c(Cl)cccc2Cl)C(=O)OCCO)cc1` [Cpd 199] was tested. Which “% Decrease in recruited α4β7 + cells” value ([1]; 30 mg/kg po bid × 2) did it give?
A: The value was 16.04%.

Q: What about the IC50 [2] of the same compound?
A: The IC50 was over 5000 nM.

Q: Which results are given for `COc1cnn(C)c(=O)c1-c1ccc(C[C@H](NC(=O)c2c(Cl)cccc2Cl)C(=O)OCC(C)(C)C)cc1` [Cpd 207]?
A: inhibition in vivo at 30 mg/kg ([1]; po, 30 mg/kg po bid × 2): 25.6%; IC50 [2]: > 5000 nM

Q: How did the inhibition in vivo at 30 mg/kg ([1]; po, 30 mg/kg po bid × 2) turn out when `Cn1ncc(N)c(-c2ccc(C[C@H](NC(=O)c3c(Cl)cccc3Cl)C(=O)OCCO)cc2)c1=O` [Cpd 232] was run?
A: Its inhibition in vivo at 30 mg/kg is 47.8%.

Q: What about the IC50 [2] of the same compound?
A: Its IC50 is over 5000 nM.
